The subject of test [1] is GlyT2. More on the design: method as in PMID 15964938. Conditions: ref 27; read-out: IC50 in FLIPR membrane potential assay; cited from earlier work.
In test [2] the test system is GlyT2. The following applies: ref 23, 27; read-out: IC50 (literature range); cited from earlier work.
The subject of test [3] is GlyT2. The following applies: ref 23; read-out: IC50 in [3H]glycine uptake assay; cited from earlier work.
In test [4] the target is T1, hGlyT2 (Homo sapiens, UniProt Q9Y345).
T1 construct: host or cells: HEK293 cells stably expressing hGlyT2; crude membrane fractions
T1 sequence (Q9Y345 1-797): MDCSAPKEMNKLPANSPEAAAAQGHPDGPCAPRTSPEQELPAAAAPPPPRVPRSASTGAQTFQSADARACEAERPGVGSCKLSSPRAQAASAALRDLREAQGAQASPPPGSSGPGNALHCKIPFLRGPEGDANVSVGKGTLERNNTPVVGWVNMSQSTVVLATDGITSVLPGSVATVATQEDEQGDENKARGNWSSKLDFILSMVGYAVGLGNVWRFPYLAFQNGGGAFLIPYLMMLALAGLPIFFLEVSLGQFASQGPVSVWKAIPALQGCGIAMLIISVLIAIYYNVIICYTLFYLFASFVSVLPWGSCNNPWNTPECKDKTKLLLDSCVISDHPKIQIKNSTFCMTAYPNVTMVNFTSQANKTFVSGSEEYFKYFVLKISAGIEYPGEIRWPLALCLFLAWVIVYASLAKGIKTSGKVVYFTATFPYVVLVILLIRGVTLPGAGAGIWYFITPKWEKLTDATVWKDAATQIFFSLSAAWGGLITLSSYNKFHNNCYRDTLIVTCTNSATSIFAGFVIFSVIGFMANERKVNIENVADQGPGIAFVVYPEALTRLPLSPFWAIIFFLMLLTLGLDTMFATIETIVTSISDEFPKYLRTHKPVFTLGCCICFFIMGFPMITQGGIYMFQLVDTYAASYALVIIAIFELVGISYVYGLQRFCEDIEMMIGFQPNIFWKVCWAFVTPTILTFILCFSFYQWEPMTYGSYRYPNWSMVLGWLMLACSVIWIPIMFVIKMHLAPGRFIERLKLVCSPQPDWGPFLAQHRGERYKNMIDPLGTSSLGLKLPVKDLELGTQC
As to the kind of experiment: GlyT2 MS Binding Assays: saturation experiments with Org25543. Conditions: mean±SEM, n=3. On the procedure:
For the further characterization of the binding of Org25543 to GlyT2 saturation experiments were performed. To determine total binding of Org25543 GlyT2 membrane fractions were incubated with the reporter ligand in eight different concentrations (0.4–150 nM) and the samples analyzed after the general workup by LC‐ESI‐MS/MS as described above. Nonspecific binding was obtained from experiments that were completely analogous to the former except that protein subjected to a prior heat‐shock was used. Quantification of Org25543 in total binding samples could be realized down to the lowest nominal concentration level (0.4 nM). For nonspecific binding samples the quantification was possible down to 2 nM nominal marker concentration. For nominal marker concentrations lower than 2 nM the concentrations of Org25543 lay below the LLOQ. As it is generally acknowledged that nonspecific binding is related to nominal marker concentration in a linear fashion, ^[46] data points below this concentration were calculated by extrapolation after linear regression analysis of the data points for nonspecific binding at nominal marker concentrations from 2 to 150 nM.
For preparation of GlyT2 membrane preparations HEK293 cells, stably expressing the hGlyT2 with a confluence ≥90 %, were used (kindly provided by AbbVie (Wiesbaden, Germany)). […]

Usually IC50 stands for the concentration that gives 50% inhibition.

Read-outs that look alike come from different tables or passages of the source.

`COc1cc(C(=O)NCC2(N(C)C)CCCC2)cc(OC)c1OCc1ccccc1` [Org25543, N‐[[1‐(dimethylamino)cyclopentyl]methyl]‐3,5‐dimethoxy‐4‐(phenylmethoxy)benzamide]: the IC50 in test [1] is 31 ± 6 nM; in test [2], 16 to 31 nM; in test [3], 16 ± 1.9 nM. Moreover, in test [4] (HEK293 hGlyT2 membrane preparation), the “maximum density of binding sites (B max)” value is on record as 26.15±1.03 pmol (mg protein)^−1. For the same compound, the Kd in test [4] (Org25543 0.4–150 nM, read-out: K d (saturation experiments)) stood at 7.45 nM.

The values are drawn from paper PMC7821181, “MS Binding Assays for Glycine Transporter 2 (GlyT2) Employing Org25543 as Reporter Ligand” (Chemmedchem, 2020).
